Results reported in the supplement of paper PMC8149375.

Key:
Settings in all cases: treatment: drug + dasatinib (fixed dose, not stated); 5 days
SN12C [1] = experiment: AUC of dose-response viability curve, drug + dasatinib, normalised to DMSO (arbitrary (AUC of normalised viability)); higher = less growth inhibition
Experimental: (§1)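 Primary HTS combination arm: 8 RCC cell lines treated with 8 doses (up to 10 uM) of each library drug plus a fixed dose of dasatinib (dose not stated) for 5 days; viability read by CellTiter-Glo and normalised to DMSO. GI50 was fitted with XLfit, AUC is the area under the dose-response curve, and minimum viability is the lowest fraction of DMSO viability across doses.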

CAKI-1 [2] = experiment: as above
Experimental: as §1

A498 [3] = experiment: as above
Experimental: as §1

ACHN [4] = experiment: as above
Experimental: as §1

UO-31 [5] = experiment: as above
Experimental: as §1

786-O [6] = experiment: as above
Experimental: as §1

TK-10 [7] = experiment: as above
Experimental: as §1

769-P [8] = experiment: as above
Experimental: as §1

SN12C [9] = experiment: minimum viability across doses, drug + dasatinib, relative to DMSO (fraction); higher = less growth inhibition
Experimental: as §1

CAKI-1 [10] = experiment: as above
Experimental: as §1

A498 [11] = experiment: as above
Experimental: as §1

ACHN [12] = experiment: as above
Experimental: as §1

UO-31 [13] = experiment: as above
Experimental: as §1

786-O [14] = experiment: as above
Experimental: as §1

TK-10 [15] = experiment: as above
Experimental: as §1

769-P [16] = experiment: as above
Experimental: as §1

SN12C [17] = experiment: GI50 of drug in presence of dasatinib; higher = less potent
Experimental: as §1

CAKI-1 [18] = experiment: as above
Experimental: as §1

A498 [19] = experiment: as above
Experimental: as §1

ACHN [20] = experiment: as above
Experimental: as §1

UO-31 [21] = experiment: as above
Experimental: as §1

786-O [22] = experiment: as above
Experimental: as §1

TK-10 [23] = experiment: as above
Experimental: as §1

769-P [24] = experiment: as above
Experimental: as §1

Row | Compound | AUC of dose-response viability curve (SN12C [1]) | AUC of dose-response viability curve (CAKI-1 [2]) | AUC of dose-response viability curve (A498 [3]) | AUC of dose-response viability curve (ACHN [4]) | AUC of dose-response viability curve (UO-31 [5]) | AUC of dose-response viability curve (786-O [6]) | AUC of dose-response viability curve (TK-10 [7]) | AUC of dose-response viability curve (769-P [8]) | minimum viability across doses (SN12C [9]) | minimum viability across doses (CAKI-1 [10]) | minimum viability across doses (A498 [11]) | minimum viability across doses (ACHN [12]) | minimum viability across doses (UO-31 [13]) | minimum viability across doses (786-O [14]) | minimum viability across doses (TK-10 [15]) | minimum viability across doses (769-P [16]) | GI50 of drug (SN12C [17]) | GI50 of drug (CAKI-1 [18]) | GI50 of drug (A498 [19]) | GI50 of drug (ACHN [20]) | GI50 of drug (UO-31 [21]) | GI50 of drug (786-O [22]) | GI50 of drug (TK-10 [23]) | GI50 of drug (769-P [24])
1 | Nc1cc(C(F)(F)F)c(-c2cc(N3CCOCC3)nc(N3CCOCC3)n2)cn1 [BKM120 (NVP-BKM120)] + Cc1nc(Nc2ncc(C(=O)Nc3c(C)cccc3Cl)s2)cc(N2CCN(CCO)CC2)n1 [dasatinib] | 1.84 | 1.51 | 2.49 | 1.48 | 2.27 | 1.29 | 1.84 | 1.83 | 0.0529 | 0.0204 | 0.101 | 0.0632 | 0.00967 | 0.00305 | 0.0741 | 0.0577 | 914 nM | 244 nM | 1250 nM | 205 nM | 663 nM | 81.7 nM | 505 nM | 478 nM
2 | CC(C)c1cnn2c(NCc3ccccc3)cc(NCCCCCCN)nc12.Cl [BS-181 HCl] + Cc1nc(Nc2ncc(C(=O)Nc3c(C)cccc3Cl)s2)cc(N2CCN(CCO)CC2)n1 [dasatinib] | 2.46 | 2.34 | 3.45 | 1.94 | 4.39 | 2.72 | 2.63 | 2.55 | 0.67 | 0.6 | 0.942 | 0.344 | 1.11 | 0.438 | 0.657 | 0.672 | > 10000 nM | > 10000 nM | > 10000 nM | 2870 nM | > 10000 nM | 7190 nM | > 10000 nM | > 10000 nM
3 | O=C(NCCCNc1nc(Nc2cccc(NC(=O)N3CCCC3)c2)ncc1I)c1cccs1 [BX-795] + Cc1nc(Nc2ncc(C(=O)Nc3c(C)cccc3Cl)s2)cc(N2CCN(CCO)CC2)n1 [dasatinib] | 2.44 | 1.77 | 3.06 | 1.74 | 3.15 | 1.72 | 2.09 | 2.08 | 0.334 | 0.0814 | 0.74 | 0.155 | 0.015 | 0.00318 | 0.0986 | 0.0706 | 4410 nM | 457 nM | > 10000 nM | 411 nM | 3020 nM | 695 nM | 1780 nM | 1590 nM
4 | O=C(Nc1cccc(Nc2ncc(Br)c(NCCc3cnc[nH]3)n2)c1)N1CCCC1 [BX-912] + Cc1nc(Nc2ncc(C(=O)Nc3c(C)cccc3Cl)s2)cc(N2CCN(CCO)CC2)n1 [dasatinib] | 2.23 | 1.8 | 2.97 | 1.9 | 3.19 | 1.78 | 2.25 | 2.3 | 0.0907 | 0.0425 | 0.365 | 0.168 | 0.288 | 0.0673 | 0.144 | 0.335 | 1180 nM | 502 nM | 5820 nM | 1280 nM | 9130 nM | 937 nM | 2590 nM | 4600 nM
5 | Cc1nc(NC(=O)N2CCC[C@H]2C(N)=O)sc1-c1ccnc(C(C)(C)C(F)(F)F)c1 [BYL719] + Cc1nc(Nc2ncc(C(=O)Nc3c(C)cccc3Cl)s2)cc(N2CCN(CCO)CC2)n1 [dasatinib] | 2.23 | 2.14 | 3.24 | 1.45 | 3.72 | 1.56 | 2.15 | 2.29 | 0.407 | 0.162 | 0.54 | 0.242 | 0.0931 | 0.114 | 0.305 | 0.393 | > 10000 nM | 1720 nM | > 10000 nM | 11.6 nM | 5560 nM | 69.8 nM | 2790 nM | 3680 nM
6 | O=c1[nH]c2ccc(Cl)cc2c(N[C@@H]2CN3CCC2CC3)c1-c1nc2ccccc2[nH]1 [CHIR-124] + Cc1nc(Nc2ncc(C(=O)Nc3c(C)cccc3Cl)s2)cc(N2CCN(CCO)CC2)n1 [dasatinib] | 1.76 | 1.3 | 2.13 | 0.737 | 1.52 | 0.817 | 1.37 | 1.31 | 0.00873 | 0.0428 | 0.0177 | 0.018 | 0.00945 | 0.00497 | 0.151 | 0.0198 | 1000 nM | 87.1 nM | 293 nM | 11.2 nM | 73.9 nM | 37.4 nM | 70.6 nM | 101 nM
7 | C=CC(=O)Nc1cc2c(Nc3ccc(F)c(Cl)c3)ncnc2cc1OCCCN1CCOCC1 [CI-1033 (Canertinib)] + Cc1nc(Nc2ncc(C(=O)Nc3c(C)cccc3Cl)s2)cc(N2CCN(CCO)CC2)n1 [dasatinib] | 2.13 | 1.84 | 2.74 | 1.31 | 2.4 | 2.11 | 1.79 | 1.46 | 0.295 | 0.0894 | 0.0275 | 0.11 | 0.00946 | 0.372 | 0.133 | 0.185 | 969 nM | 739 nM | 4070 nM | 14.1 nM | 1330 nM | 1340 nM | 283 nM | 46.4 nM
8 | Cc1nc(N)sc1-c1ccnc(Nc2ccc(N3CCOCC3)cc2)n1 [CYC116] + Cc1nc(Nc2ncc(C(=O)Nc3c(C)cccc3Cl)s2)cc(N2CCN(CCO)CC2)n1 [dasatinib] | 2 | 1.45 | 3.01 | 1.35 | 2.86 | 1.74 | 1.96 | 1.92 | 0.0981 | 0.00751 | 0.381 | 0.0722 | 0.0118 | 0.0032 | 0.0917 | 0.074 | 831 nM | 332 nM | 6520 nM | 137 nM | 2020 nM | 482 nM | 640 nM | 1020 nM
9 | COc1cc2c(Oc3ccc4[nH]c(C)cc4c3F)ncnc2cc1OCCCN1CCCC1 [Cediranib (AZD2171)] + Cc1nc(Nc2ncc(C(=O)Nc3c(C)cccc3Cl)s2)cc(N2CCN(CCO)CC2)n1 [dasatinib] | 1.85 | 1.59 | 2.63 | 1.61 | 2.17 | 2.21 | 2.35 | 2.35 | 0.0758 | 0.019 | 0.154 | 0.0558 | 0.014 | 0.13 | 0.0412 | 0.145 | 355 nM | 287 nM | 2390 nM | 210 nM | 617 nM | 1350 nM | 2240 nM | 3970 nM
10 | N#CCNC(=O)c1ccc(-c2ccnc(Nc3ccc(N4CCOCC4)cc3)n2)cc1 [Cyt387] + Cc1nc(Nc2ncc(C(=O)Nc3c(C)cccc3Cl)s2)cc(N2CCN(CCO)CC2)n1 [dasatinib] | 2.27 | 1.83 | 3.6 | 1.72 | 2.78 | 1.73 | 2.14 | 2.24 | 0.271 | 0.0305 | 0.897 | 0.0607 | 0.00938 | 0.0246 | 0.0961 | 0.125 | 2910 nM | 325 nM | > 10000 nM | 796 nM | 2550 nM | 884 nM | 1630 nM | 2110 nM
11 | CNC(=O)c1cc(Oc2ccc(NC(=O)Nc3cc(C(C)(C)C)nn3-c3ccc4ncccc4c3)c(F)c2)ccn1 [DCC-2036 (Rebastinib)] + Cc1nc(Nc2ncc(C(=O)Nc3c(C)cccc3Cl)s2)cc(N2CCN(CCO)CC2)n1 [dasatinib] | 1.87 | 1.54 | 3.51 | 1.71 | 2.84 | 1.88 | 2.29 | 2.21 | 0.0277 | 0.053 | 0.0121 | 0.0458 | 0.00958 | 0.208 | 0.0566 | 0.185 | 319 nM | 125 nM | 4420 nM | 499 nM | 1100 nM | 293 nM | 1330 nM | 1540 nM
12 | CN1CCN(c2ccc3nc(-c4c(N)c5c(F)cccc5[nH]c4=O)[nH]c3c2)CC1 [Dovitinib (TKI-258)] + Cc1nc(Nc2ncc(C(=O)Nc3c(C)cccc3Cl)s2)cc(N2CCN(CCO)CC2)n1 [dasatinib] | 1.6 | 1.5 | 2.49 | 1.38 | 2.36 | 2.58 | 2.33 | 2.06 | 0.0733 | 0.0724 | 0.239 | 0.14 | 0.0928 | 0.263 | 0.277 | 0.0592 | 266 nM | 148 nM | 2330 nM | 44.8 nM | 697 nM | 4070 nM | 1890 nM | 1410 nM
13 | CC(O)C(=O)O.CC(O)C(=O)O.CN1CCN(c2ccc3nc(-c4c(N)c5c(F)cccc5[nH]c4=O)[nH]c3c2)CC1 [Dovitinib Dilactic acid (TKI258 Dilactic acid)] + Cc1nc(Nc2ncc(C(=O)Nc3c(C)cccc3Cl)s2)cc(N2CCN(CCO)CC2)n1 [dasatinib] | 1.8 | 1.45 | 3.14 | 0.989 | 3.44 | 2.64 | 2.12 | 2.2 | 0.0502 | 0.0435 | 0.303 | 0.0981 | 0.124 | 0.139 | 0.289 | 0.0213 | 352 nM | 98.2 nM | 4270 nM | 11.7 nM | 1320 nM | 3480 nM | 1070 nM | 1750 nM
14 | COc1cc2nccc(Oc3ccc(NC(=O)NC4CC4)c(Cl)c3)c2cc1C(N)=O [E7080 (Lenvatinib)] + Cc1nc(Nc2ncc(C(=O)Nc3c(C)cccc3Cl)s2)cc(N2CCN(CCO)CC2)n1 [dasatinib] | 2.22 | 1.81 | 3.47 | 1.96 | 1.8 | 2.62 | 2.65 | 2.26 | 0.312 | 0.0901 | 0.795 | 0.247 | 0.338 | 0.674 | 0.682 | 0.321 | > 10000 nM | 431 nM | > 10000 nM | 1260 nM | 7260 nM | > 10000 nM | > 10000 nM | 4520 nM
